From patent US12678437B2, “Use of Cyclo-HisPro (CHP) for lowering blood pressure” (NOVMETAPHARMA CO., LTD., priority 2020, dated 2026)

Assays:
VE-cadherin = VE-cadherin protein expression (Western blot) in angiotensin II-treated HUVEC cells; type: cell-based, Human; conditions: HUVEC cells treated with Ang II and CHP, versus Ang II-treated control; corrected by β-actin
Procedure: (§1) Human umbilical vein endothelial cells (HUVEC, CRL-1730) were obtained from the American Type Culture Collection (ATCC), and EBM-2 basal medium and EGM-2 MV microvascular endothelial cell growth medium SingleQuots supplements were purchased from Lonza.
(§2) HUVEC cells were cultured in EBM-2 medium supplemented with EGM-2 MV SingleQuots supplements at 37° C. and 5% CO2 conditions. The medium was replaced every 2 to 3 days, and subculture was performed at 70 to 80% confluency.
(§3) HUVEC cells treated with angiotensin II and CHP were placed in 500 uL of RIPA buffer containing protease and phosphatase inhibitors, and then pulverized by using IKA's T10 homogenizer. […] The supernatant was collected and the protein concentration was measured by BCA quantitation, and the same amount of samples was separated by using the Bolt TM protein gel electrophoresis system, and then transferred to a nitrocellulose membrane. […] After washing 3 times for 10 minutes with TBST, the expression level was measured by reacting with ECL. The size of the appearing band was quantified by using the ImageJ program and corrected by dividing the size value of each band by the size value of the β-actin band. Statistical significance was analyzed by using Student's t-test statistical method with angiotensin II-treated control group (Ang II) (*p<0.05, […], ***p<0.0005).

eNOS gene = eNOS gene expression (real-time PCR) in SVEC4-10 cells; type: cell-based, mouse; conditions: CHP 0, 10, 100 and 250 μM, serum-free medium, 2 hours, corrected by β-actin
Procedure: SVEC4-10 (CRL-2181), which is a mouse endothelial cell line, was obtained from the American Type Culture Collection (ATCC), and RPMI-1640 medium and FBS were purchased from Hyclone.
SVEC4-10 cells were cultured at 37° C. and 5% CO2 conditions by using RPMI-1640 medium containing 10% FBS and 1% penicillin/streptomycin, and subculture was performed every 2 days.
SVEC4-10 cells were placed in a 6-well plate at 5×10^5 cells and cultured for 24 hours. CHP was treated at concentrations of 0, 10, 100 and 250 μM in serum-free medium, respectively, and then it was cultured at 37° C. and 5% CO2 conditions for 2 hours. Thereafter, the medium was removed, and it was washed once with cold PBS and then immediately dissolved using NucleoZOL.
For RNA extraction, RNA was extracted according to the manufacturer's total RNA isolation protocol by using NucleoZOL (MACHEREY-NAGEL), and 1 μg of RNA was subjected to reverse transcription polymerase chain reaction to synthesize cDNA by using iScript cDNA synthesis kit (Bio-Rad). The synthesized cDNA was analyzed by real-time PCR using iQ SYBR Green Supermix (Bio-Rad) by using the primer set of the eNOS gene.
Each gene expression value was corrected by dividing by the expression value of β-actin, which is a housekeeping gene. Statistical significance was analyzed by the Student's t-test statistical method (*p<0.05).

[1] = test system: AT1R (angiotensin II type I receptor); assay: AT1R protein expression (Western blot) in angiotensin II-treated HUVEC cells; type: cell-based, Human; conditions: HUVEC cells treated with Ang II and CHP, versus Ang II-treated control; corrected by β-actin
Procedure: as §1, §2, §3

⅚ nephrectomy rats [2] = assay: Prophylactic (pre-treatment) blood pressure control in ⅚ nephrectomy rats; type: in vivo; conditions: ⅚ nephrectomy SD rats; oral 35 mg/kg every other day for 8 weeks from 3 days before nephrectomy; tail artery; SHAM 127.8, disease control (Nx) 196.2
Description: 1-1. Construction of ⅚ Nephrectomy Model and Cyclo-HisPro Administration
The kidney is involved in water and sodium metabolism and is closely associated with the renin-angiotensin system, and thus, kidney disease itself, that is, glomerulitis or renal failure, may cause hypertension and play an important role in the development of essential hypertension. Chronic renal failure through nephrectomy in rats leads to continued progression of hypertension, uremia, proteinuria and glomerulosclerosis.
After pre-bringing 7-week-old SD rats purchased from Koatech Co., Ltd. for more than one week, the experimental group underwent surgery in two stages. […]
In order to reduce the error range of blood pressure measurement, the experimental animals were calibrated in the holder of a blood pressure meter (BP-2000 blood pressure analysis system, rat platform 2-channel, Visitech Systems, Apex, NC, USA) and then acclimatized in a heating chamber at 37° C. for 30 minutes, and the systolic blood pressure was measured at least 5 times in the tail artery to obtain the average value. […]

[3] = test system: AT2R (angiotensin II type 2 receptor); assay: AT2R protein expression (Western blot) in angiotensin II-treated HUVEC cells; type: cell-based, Human; conditions: HUVEC cells treated with Ang II and CHP, versus Ang II-treated control; corrected by β-actin
Procedure: as §1, §2, §3

HMVEC-L cells = assay: NO production (DAF-FM DA fluorescence) in HMVEC-L cells; type: cell-based, Human; conditions: CHP 0, 1, 10, 100 and 500 μM, serum-free medium, 2 hours, versus control not treated with CHP
Procedure: Human lung microvascular cells (HMVEC-L, CC2527) were obtained from the American Type Culture Collection (ATCC), and EBM-2 basal medium and EGM-2 MV microvascular endothelial cell growth medium SingleQuots supplements were purchased from Lonza.
HUVEC-L cells were cultured in EBM-2 medium supplemented with EGM-2 MV SingleQuots at 37° C. and 5% CO2 conditions. The medium was replaced every 2 to 3 days, and subculture was performed at 70 to 80% confluency.
5×10^4 cells were placed in a black 96-well plate, incubated for 24 hours and treated with CHP at concentrations of 0, 1, 10, 100 and 500 μM in serum-free medium, respectively, and cultured at 37° C. and 5% CO2 conditions for 2 hours. DAF-FM DA (DAF-FM Diacetate; Invitrogen) at a concentration of 5 μM was added and further incubated for 30 minutes, and it was washed once with PBS and observed with a fluorescence microscope at FITC wavelength. Photographs were taken at the same exposure time, and the fluorescence intensity of each cell was measured by using the ImageJ tool. Statistical significance was analyzed by one-way ANOVA statistical method, and comparison with the control group which was not treated with CHP was analyzed by Dunnett's test (****p<0.0001).

⅚ nephrectomy rats [4] = assay: Therapeutic (post-treatment) blood pressure control in ⅚ nephrectomy rats; type: in vivo; conditions: ⅚ nephrectomy SD rats; oral 35 mg/kg every other day for 6 weeks from 2 weeks after nephrectomy; tail artery; SHAM 127.8, disease control (Nx) 196.2
Procedure: After pre-bringing 7-week-old SD rats purchased from Koatech Co., Ltd. for more than one week, the experimental group underwent surgery in two stages. After general anesthesia, incision was performed along the midline of the abdomen to separate the left kidney from the adrenal glands and surrounding tissues, and after holding the renal blood vessel with forceps to prevent bleeding, the upper ⅓ and lower ⅓ of the left kidney were removed, and after 1 week, general anesthesia was performed again, and the entire right kidney was removed to complete a ⅚ nephrectomy model.
In order to reduce the error range of blood pressure measurement, the experimental animals were calibrated in the holder of a blood pressure meter (BP-2000 blood pressure analysis system, rat platform 2-channel, Visitech Systems, Apex, NC, USA) and then acclimatized in a heating chamber at 37° C. for 30 minutes, and the systolic blood pressure was measured at least 5 times in the tail artery to obtain the average value. The significance of the experimental results was verified by performing t-test for each group of the disease control group (Nx), the normal control group and the Cyclo-HisPro administration group, and there was a statistically significant difference (**p<0.005, ***p<0.0005, ****p<0.00005).
2-1. Construction of ⅚ Nephrectomy Model and Administration of Cyclo-HisPro […]

O=C1N[C@@H](Cc2cnc[nH]2)C(=O)N2CCC[C@@H]12 [Cyclo-HisPro]
VE-cadherin protein expression (VE-cadherin): statistically significantly increased
expression of the eNOS gene (eNOS gene): significantly increased
AT1R protein expression [1]: statistically significantly decreased
systolic blood pressure (⅚ nephrectomy rats [2]): 156.7 mmHg
AT2R protein expression [3]: tended to increase
NO production (intensity of DAF-FM DA fluorescence) (HMVEC-L cells): significantly increased
systolic blood pressure (⅚ nephrectomy rats [4]): 171.6 mmHg
